Assay results taken from PMC4904262 (ACS Medicinal Chemistry Letters, 2016).

Tests used:
[1] = target: MRCKBETA (Homo sapiens, UniProt Q9Y5S2); conditions: 1 µM, ATP at Km
[2] = target: LIMK1 (Homo sapiens, UniProt P53667); conditions: 1 µM, ATP at Km
[3] = target: PDGFRBETA (Homo sapiens, UniProt P09619); conditions: 1 µM, ATP at Km
[4] = target: HIPK3 (Homo sapiens, UniProt Q9H422); conditions: 1 µM, ATP at Km
[5] = target: CK1GAMMA1 (Homo sapiens, UniProt Q9HCP0); conditions: 1 µM, ATP at Km
[6] = target: PKG1BETA (Homo sapiens, UniProt Q13976); conditions: 1 µM, ATP at Km
[7] = target: FGFR2 (Homo sapiens, UniProt P21802); conditions: 1 µM, ATP at Km
[8] = target: NEK6 (Homo sapiens, UniProt Q9HC98); conditions: 1 µM, ATP at Km
[9] = target: KDR (Homo sapiens, UniProt P35968); conditions: 1 µM, ATP at Km
[10] = target: EPHA4 (Homo sapiens, UniProt P54764); conditions: 1 µM, ATP at Km
[11] = target: PRKAA1 (Homo sapiens, UniProt Q13131); conditions: 1 µM, ATP at Km
[12] = target: DYRK2 (Homo sapiens, UniProt Q92630); conditions: 1 µM, ATP at Km
[13] = target: ALK (Homo sapiens, UniProt Q9UM73); conditions: 1 µM, ATP at Km
[14] = target: […] (Homo sapiens, UniProt Q13557); conditions: 1 µM, ATP at Km
[15] = target: PKCALPHA (Homo sapiens, UniProt P17252); conditions: 1 µM, ATP at Km
[16] = target: CDK6/CYCLIND3 (Homo sapiens, UniProt Q00534); conditions: 1 µM, ATP at Km
[17] = target: FLT1 (Homo sapiens, UniProt P17948); conditions: 1 µM, ATP at Km
[18] = target: IRAK4 (Homo sapiens, UniProt Q9NWZ3); conditions: 1 µM, ATP at Km
[19] = target: BRK (Homo sapiens, UniProt Q13882); conditions: 1 µM, ATP at Km
[20] = target: TLK2 (Homo sapiens, UniProt Q86UE8); conditions: 1 µM, ATP at Km
[21] = target: IR, ACTIVATED (Homo sapiens, UniProt P06213); conditions: 1 µM, ATP at Km
[22] = target: TRKA (Homo sapiens, UniProt P04629); conditions: 1 µM, ATP at Km
[23] = target: NEK11 (Homo sapiens, UniProt Q8NG66); conditions: 1 µM, ATP at Km
[24] = target: EPHA5 (Homo sapiens, UniProt P54756); conditions: 1 µM, ATP at Km
[25] = target: RSK2 (Homo sapiens, UniProt P51812); conditions: 1 µM, ATP at Km
[26] = target: […] (Homo sapiens, UniProt Q13555); conditions: 1 µM, ATP at Km
[27] = target: PKCDELTA (Homo sapiens, UniProt Q05655); conditions: 1 µM, ATP at Km
[28] = target: NEK3 (Homo sapiens, UniProt P51956); conditions: 1 µM, ATP at Km
[29] = target: TAO1 (Homo sapiens, UniProt Q7L7X3); conditions: 1 µM, ATP at Km
[30] = target: EGFR (Homo sapiens, UniProt P00533); conditions: 1 µM, ATP at Km
[31] = target: EPHA8 (Homo sapiens, UniProt P29322); conditions: 1 µM, ATP at Km
[32] = target: IRR (Homo sapiens, UniProt P14616); conditions: 1 µM, ATP at Km
[33] = target: TXK (Homo sapiens, UniProt P42681); conditions: 1 µM, ATP at Km
[34] = target: EPHA1 (Homo sapiens, UniProt P21709); conditions: 1 µM, ATP at Km
[35] = target: PASK (Homo sapiens, UniProt Q96RG2); conditions: 1 µM, ATP at Km
[36] = target: SAPK3 (Homo sapiens, UniProt P53778); conditions: 1 µM, ATP at Km
[37] = target: FGFR3 (Homo sapiens, UniProt P22607); conditions: 1 µM, ATP at Km
[38] = target: SAPK2B (Homo sapiens, UniProt Q15759); conditions: 1 µM, ATP at Km
[39] = target: PEK (Homo sapiens, UniProt Q9NZJ5); conditions: 1 µM, ATP at Km
[40] = target: FMS (Homo sapiens, UniProt P07333); conditions: 1 µM, ATP at Km
[41] = target: PAK2 (Homo sapiens, UniProt Q13177); conditions: 1 µM, ATP at Km
[42] = target: SGK (Homo sapiens, UniProt O00141); conditions: 1 µM, ATP at Km
[43] = target: LCK (Homo sapiens, UniProt P06239); conditions: LCK (first listing, page 9); 1 µM; ATP at Km
[44] = target: RSK4 (Homo sapiens, UniProt Q9UK32); conditions: 1 µM, ATP at Km
[45] = target: SAPK4 (Homo sapiens, UniProt O15264); conditions: 1 µM, ATP at Km

Chain of PKCDELTA (Q05655 whole entry): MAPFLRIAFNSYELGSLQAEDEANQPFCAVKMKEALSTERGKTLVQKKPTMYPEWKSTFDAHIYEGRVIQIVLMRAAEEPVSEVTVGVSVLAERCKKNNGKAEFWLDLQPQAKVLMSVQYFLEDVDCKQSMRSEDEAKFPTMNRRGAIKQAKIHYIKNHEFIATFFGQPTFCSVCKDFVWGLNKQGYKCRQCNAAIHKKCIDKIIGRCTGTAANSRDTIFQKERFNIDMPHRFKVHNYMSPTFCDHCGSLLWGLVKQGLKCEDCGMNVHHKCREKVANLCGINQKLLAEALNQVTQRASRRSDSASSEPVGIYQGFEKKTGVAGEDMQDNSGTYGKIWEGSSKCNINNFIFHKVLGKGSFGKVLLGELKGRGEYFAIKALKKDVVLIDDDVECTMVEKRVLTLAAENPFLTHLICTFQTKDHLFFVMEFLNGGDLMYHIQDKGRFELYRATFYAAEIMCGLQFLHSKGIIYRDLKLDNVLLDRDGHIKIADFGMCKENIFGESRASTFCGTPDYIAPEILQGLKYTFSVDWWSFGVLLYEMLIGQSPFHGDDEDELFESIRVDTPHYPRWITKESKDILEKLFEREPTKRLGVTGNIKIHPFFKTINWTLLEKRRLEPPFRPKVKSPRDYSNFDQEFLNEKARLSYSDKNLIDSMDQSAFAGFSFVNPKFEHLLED
Chain of TLK2 (Q86UE8 whole entry): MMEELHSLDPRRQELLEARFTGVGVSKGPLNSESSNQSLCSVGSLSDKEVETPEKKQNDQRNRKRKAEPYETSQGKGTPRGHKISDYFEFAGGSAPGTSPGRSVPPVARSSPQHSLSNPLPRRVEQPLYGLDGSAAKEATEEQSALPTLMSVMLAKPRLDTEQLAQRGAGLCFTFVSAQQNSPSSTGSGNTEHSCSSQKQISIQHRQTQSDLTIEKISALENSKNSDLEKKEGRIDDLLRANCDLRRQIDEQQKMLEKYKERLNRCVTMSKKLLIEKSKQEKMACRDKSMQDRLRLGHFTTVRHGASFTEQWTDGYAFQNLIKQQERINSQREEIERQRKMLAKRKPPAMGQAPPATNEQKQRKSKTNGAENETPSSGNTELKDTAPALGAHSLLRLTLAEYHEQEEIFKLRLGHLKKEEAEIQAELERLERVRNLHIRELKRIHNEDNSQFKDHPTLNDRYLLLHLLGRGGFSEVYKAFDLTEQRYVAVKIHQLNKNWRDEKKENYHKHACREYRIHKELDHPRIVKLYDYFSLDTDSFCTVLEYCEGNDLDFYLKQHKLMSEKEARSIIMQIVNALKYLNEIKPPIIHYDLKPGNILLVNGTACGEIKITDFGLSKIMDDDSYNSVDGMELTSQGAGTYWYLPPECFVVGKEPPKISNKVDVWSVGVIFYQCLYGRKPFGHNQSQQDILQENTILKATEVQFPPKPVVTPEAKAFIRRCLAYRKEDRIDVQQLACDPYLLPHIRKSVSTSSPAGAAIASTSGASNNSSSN
Chain of PASK (Q96RG2 whole entry): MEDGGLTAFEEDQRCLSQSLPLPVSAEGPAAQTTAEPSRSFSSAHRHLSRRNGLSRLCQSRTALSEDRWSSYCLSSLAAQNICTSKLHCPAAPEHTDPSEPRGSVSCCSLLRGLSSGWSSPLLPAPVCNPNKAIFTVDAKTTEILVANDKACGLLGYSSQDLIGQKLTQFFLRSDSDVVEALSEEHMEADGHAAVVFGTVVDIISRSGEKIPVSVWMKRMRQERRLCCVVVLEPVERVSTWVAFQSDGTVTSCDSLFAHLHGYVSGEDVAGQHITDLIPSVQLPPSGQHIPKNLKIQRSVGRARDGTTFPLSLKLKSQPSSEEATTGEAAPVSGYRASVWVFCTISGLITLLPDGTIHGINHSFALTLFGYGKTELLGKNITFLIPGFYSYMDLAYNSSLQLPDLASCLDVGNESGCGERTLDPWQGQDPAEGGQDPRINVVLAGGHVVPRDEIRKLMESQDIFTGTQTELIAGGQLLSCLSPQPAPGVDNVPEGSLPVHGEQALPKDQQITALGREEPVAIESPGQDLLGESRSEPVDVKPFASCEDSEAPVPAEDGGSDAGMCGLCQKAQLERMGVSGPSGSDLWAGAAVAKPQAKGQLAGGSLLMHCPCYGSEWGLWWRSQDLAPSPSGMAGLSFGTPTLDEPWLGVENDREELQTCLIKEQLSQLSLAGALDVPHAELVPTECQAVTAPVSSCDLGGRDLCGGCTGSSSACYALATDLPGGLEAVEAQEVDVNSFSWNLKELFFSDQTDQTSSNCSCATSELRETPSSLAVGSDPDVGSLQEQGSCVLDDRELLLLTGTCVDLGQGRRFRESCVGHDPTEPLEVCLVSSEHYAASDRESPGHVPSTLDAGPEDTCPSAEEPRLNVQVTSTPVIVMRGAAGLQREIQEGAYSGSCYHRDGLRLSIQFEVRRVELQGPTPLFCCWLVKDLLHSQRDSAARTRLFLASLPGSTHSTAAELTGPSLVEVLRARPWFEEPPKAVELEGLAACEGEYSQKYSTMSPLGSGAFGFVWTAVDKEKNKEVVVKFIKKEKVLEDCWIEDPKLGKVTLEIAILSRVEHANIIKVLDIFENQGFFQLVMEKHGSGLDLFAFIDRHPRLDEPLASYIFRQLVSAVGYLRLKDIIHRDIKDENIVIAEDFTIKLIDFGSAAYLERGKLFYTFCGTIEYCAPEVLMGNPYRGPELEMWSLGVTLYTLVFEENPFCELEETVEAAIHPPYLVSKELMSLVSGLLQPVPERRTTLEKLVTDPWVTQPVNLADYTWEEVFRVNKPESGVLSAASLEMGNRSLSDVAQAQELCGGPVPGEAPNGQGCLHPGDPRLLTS
Chain of HIPK3 (Q9H422 whole entry): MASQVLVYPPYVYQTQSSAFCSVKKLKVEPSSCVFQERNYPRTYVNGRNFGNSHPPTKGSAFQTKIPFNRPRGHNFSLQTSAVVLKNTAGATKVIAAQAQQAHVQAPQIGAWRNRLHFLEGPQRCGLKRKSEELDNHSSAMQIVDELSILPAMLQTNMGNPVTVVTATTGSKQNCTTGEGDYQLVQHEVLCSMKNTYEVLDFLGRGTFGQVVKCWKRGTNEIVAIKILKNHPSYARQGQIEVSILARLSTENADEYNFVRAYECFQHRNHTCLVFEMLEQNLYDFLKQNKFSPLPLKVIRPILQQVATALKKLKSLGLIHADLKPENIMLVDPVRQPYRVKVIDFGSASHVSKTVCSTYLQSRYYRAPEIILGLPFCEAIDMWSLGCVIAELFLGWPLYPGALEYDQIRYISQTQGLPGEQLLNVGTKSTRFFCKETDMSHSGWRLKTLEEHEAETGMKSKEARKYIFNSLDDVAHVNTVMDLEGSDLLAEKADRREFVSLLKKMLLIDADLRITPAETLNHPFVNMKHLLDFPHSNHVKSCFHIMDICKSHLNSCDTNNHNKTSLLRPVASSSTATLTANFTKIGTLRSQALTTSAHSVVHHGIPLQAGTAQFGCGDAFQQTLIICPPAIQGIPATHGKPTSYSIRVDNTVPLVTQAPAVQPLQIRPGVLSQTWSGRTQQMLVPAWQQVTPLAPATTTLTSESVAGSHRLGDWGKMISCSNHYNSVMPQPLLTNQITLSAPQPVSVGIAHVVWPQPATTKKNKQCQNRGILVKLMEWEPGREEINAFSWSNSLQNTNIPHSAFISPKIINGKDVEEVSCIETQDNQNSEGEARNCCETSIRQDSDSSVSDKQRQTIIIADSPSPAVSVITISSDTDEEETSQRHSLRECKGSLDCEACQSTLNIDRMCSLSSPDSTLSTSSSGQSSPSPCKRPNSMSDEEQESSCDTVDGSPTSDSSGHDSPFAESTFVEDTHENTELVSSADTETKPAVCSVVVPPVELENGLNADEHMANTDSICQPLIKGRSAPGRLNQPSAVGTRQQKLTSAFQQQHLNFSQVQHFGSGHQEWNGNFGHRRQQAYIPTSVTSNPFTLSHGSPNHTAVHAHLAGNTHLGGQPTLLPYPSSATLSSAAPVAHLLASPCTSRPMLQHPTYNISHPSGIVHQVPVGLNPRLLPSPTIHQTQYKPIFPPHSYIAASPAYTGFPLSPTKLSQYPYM
Chain of BRK (Q13882 whole entry): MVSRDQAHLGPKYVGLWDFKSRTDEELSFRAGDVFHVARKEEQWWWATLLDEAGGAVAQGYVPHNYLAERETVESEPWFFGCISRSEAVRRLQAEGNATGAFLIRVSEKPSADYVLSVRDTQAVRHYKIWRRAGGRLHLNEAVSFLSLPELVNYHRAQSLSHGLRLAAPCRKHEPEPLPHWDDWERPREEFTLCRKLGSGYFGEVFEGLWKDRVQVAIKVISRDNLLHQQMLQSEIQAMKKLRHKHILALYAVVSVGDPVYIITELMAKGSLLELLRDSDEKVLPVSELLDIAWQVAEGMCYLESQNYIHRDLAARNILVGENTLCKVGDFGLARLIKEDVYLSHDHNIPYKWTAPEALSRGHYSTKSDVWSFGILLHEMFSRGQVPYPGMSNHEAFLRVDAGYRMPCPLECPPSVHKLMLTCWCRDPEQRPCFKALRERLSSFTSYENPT
Chain of […] (Homo sapiens, UniProt Q13557) (Q13557 whole entry): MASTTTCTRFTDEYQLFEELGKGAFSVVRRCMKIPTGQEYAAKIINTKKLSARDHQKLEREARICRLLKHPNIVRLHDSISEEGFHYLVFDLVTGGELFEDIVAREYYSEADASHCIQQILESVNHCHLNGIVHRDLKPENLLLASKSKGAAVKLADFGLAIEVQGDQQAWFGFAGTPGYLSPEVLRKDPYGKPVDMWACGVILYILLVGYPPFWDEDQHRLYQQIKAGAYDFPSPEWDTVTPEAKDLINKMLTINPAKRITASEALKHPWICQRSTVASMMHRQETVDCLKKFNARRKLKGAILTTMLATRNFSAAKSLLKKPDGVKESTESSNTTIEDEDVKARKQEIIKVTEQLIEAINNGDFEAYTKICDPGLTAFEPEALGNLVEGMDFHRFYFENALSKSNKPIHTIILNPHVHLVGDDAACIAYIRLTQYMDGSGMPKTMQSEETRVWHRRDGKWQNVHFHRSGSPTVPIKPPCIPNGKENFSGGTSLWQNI

COC1CN(C(=O)c2ccc3c(N)ncc(-c4ccc(-c5cnn(C)c5)cc4)c3c2)C1 [Compound 59]
percentage effect [1]: 13% | percentage effect [2]: 5% | percentage effect [3]: 17% | percentage effect [4]: 4% | percentage effect [5]: -8% | percentage effect [6]: 1% | percentage effect [7]: -6% | percentage effect [8]: -34% | percentage effect [9]: -5% | percentage effect [10]: 1% | percentage effect [11]: -3% | percentage effect [12]: -9% | percentage effect [13]: -30% | percentage effect [14]: 8% | percentage effect [15]: -2% | percentage effect [16]: -14% | percentage effect [17]: -15% | percentage effect [18]: 1% | percentage effect [19]: 5% | percentage effect [20]: -5% | percentage effect [21]: -2% | percentage effect [22]: -25% | percentage effect [23]: -22% | percentage effect [24]: 3% | percentage effect [25]: 0% | percentage effect [26]: 2% | percentage effect [27]: 0% | percentage effect [28]: -2% | percentage effect [29]: 9% | percentage effect [30]: 14% | percentage effect [31]: -12% | percentage effect [32]: -5% | percentage effect [33]: -7% | percentage effect [34]: 4% | percentage effect [35]: -4% | percentage effect [36]: -11% | percentage effect [37]: -4% | percentage effect [38]: 43% | percentage effect [39]: 1% | percentage effect [40]: -14% | percentage effect [41]: -18% | percentage effect [42]: 14% | percentage effect [43]: -18% | percentage effect [44]: 13% | percentage effect [45]: -13%

COC1CN(C(=O)c2ccc3c(N)ncc(-c4ccc(-c5cnn(C)c5)cc4)c3n2)C1 [Compound 51]
percentage effect [1]: -4% | percentage effect [2]: 0% | percentage effect [3]: 2% | percentage effect [4]: 6% | percentage effect [5]: -8% | percentage effect [6]: 1% | percentage effect [7]: -3% | percentage effect [8]: -2% | percentage effect [9]: 0% | percentage effect [10]: 2% | percentage effect [11]: -1% | percentage effect [12]: -6% | percentage effect [13]: -20% | percentage effect [14]: -10% | percentage effect [15]: -10% | percentage effect [16]: -10% | percentage effect [17]: -9% | percentage effect [18]: -9% | percentage effect [19]: 10% | percentage effect [20]: 2% | percentage effect [21]: -15% | percentage effect [22]: -23% | percentage effect [23]: 3% | percentage effect [24]: -1% | percentage effect [25]: 6% | percentage effect [26]: 5% | percentage effect [27]: 4% | percentage effect [28]: -14% | percentage effect [29]: -1% | percentage effect [30]: -45% | percentage effect [31]: -9% | percentage effect [32]: -2% | percentage effect [33]: -13% | percentage effect [34]: 7% | percentage effect [35]: -8% | percentage effect [36]: -11% | percentage effect [37]: 7% | percentage effect [38]: 0% | percentage effect [39]: -6% | percentage effect [40]: -37% | percentage effect [41]: -17% | percentage effect [42]: 14% | percentage effect [43]: 2% | percentage effect [44]: 9% | percentage effect [45]: 2%
